Data reported in ChEMBL document CHEMBL2016447, “Cyclopropyl Carboxamides: A New Oral Antimalarial Series Derived from the Tres Cantos Anti-Malarial Set (TCAMS)” (ACS Med Chem Lett, 2011).
Converted amounts (≈) assume the structure as drawn. One block for each compound: values may come before it. The source made the active and inactive calls. The calls are words filed in the database; no cut-off is given here.

Experiments:
Plasmodium falciparum [1] = assay: Antiplasmodial activity against Plasmodium falciparum 3D7 infected in human erythrocytes assessed as inhibition of [3H]hypoxanthine incorporation after 24 hrs by microbeta counter; type: functional, organism-based
Plasmodium falciparum [2] = assay: Antiplasmodial activity Plasmodium falciparum 3D70087/N9 infected in NODscidIL2Rgammac-/- mouse assessed as reduction of parasitemia administered 3 days after infection measured on day 3 to 7 by flow cytometry; type: functional; settings: 3D70087/N9, 72 h
[3] = Half life in mouse liver microsomes at 100 uM by HPLC analysis; type: ADME, Microsome
Liver microsomes = assay: Intrinsic clearance in human liver microsomes assessed per gram of protein at 100 uM by HPLC analysis; type: ADME, Microsome
[4] = Half life in human liver microsomes at 100 uM by HPLC analysis; type: ADME, Microsome
Liver = assay: Intrinsic clearance in mouse liver microsomes assessed per gram of protein at 100 uM by HPLC analysis; type: ADME, Microsome
[5] = Lipophilicity, log D of the compound by chromatographic hydrophobicity index assay; type: physicochemical
Plasmodium falciparum [6] = assay: Antiplasmodial activity against Plasmodium falciparum 3D7 by parasite lactate dehydrogenase assay; type: functional, organism-based
[7] = Solubility of the compound in DMSO by chemiluminescent nitrogen detection assay; type: physicochemical
[8] = target: T1, Nuclear receptor subfamily 1 group I member 2 (Homo sapiens, UniProt O75469); assay: Activity at PXR at 2.5 uM
T1 sequence (O75469 whole entry): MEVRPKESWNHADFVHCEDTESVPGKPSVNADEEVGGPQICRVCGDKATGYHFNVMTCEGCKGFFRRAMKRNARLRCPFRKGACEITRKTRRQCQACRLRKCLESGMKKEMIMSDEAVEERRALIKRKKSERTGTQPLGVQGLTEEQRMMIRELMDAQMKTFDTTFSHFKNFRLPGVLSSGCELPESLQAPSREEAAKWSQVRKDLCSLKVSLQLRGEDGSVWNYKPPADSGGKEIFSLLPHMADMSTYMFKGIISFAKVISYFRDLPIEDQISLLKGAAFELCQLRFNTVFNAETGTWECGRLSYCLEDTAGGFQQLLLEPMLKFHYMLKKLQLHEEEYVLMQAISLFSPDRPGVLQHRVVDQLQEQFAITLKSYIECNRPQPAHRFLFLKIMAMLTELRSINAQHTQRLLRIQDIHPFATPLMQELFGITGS

Cytochrome P450 3A4 = Cytochrome P450 3A4 (Homo sapiens, UniProt P08684); assay: Inhibition of CYP3A4; type: ADME
Sequence of Cytochrome P450 3A4 (P08684 whole entry): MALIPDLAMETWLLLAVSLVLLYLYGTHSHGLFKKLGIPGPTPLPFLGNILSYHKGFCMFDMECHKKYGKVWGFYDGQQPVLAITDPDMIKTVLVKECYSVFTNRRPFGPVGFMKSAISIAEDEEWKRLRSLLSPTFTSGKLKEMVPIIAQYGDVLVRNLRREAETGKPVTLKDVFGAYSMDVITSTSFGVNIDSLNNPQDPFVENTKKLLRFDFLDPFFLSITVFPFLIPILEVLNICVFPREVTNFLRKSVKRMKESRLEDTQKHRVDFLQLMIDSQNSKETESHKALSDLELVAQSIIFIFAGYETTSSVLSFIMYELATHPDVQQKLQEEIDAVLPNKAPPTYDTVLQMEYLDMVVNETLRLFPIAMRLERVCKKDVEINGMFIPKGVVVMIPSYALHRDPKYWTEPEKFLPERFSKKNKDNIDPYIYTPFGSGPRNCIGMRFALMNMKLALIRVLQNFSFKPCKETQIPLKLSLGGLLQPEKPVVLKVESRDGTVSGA

Cytochrome P450 2C9 = Cytochrome P450 2C9 (Homo sapiens, UniProt P11712); assay: Inhibition of CYP2C9; type: ADME
Sequence of Cytochrome P450 2C9 (P11712 whole entry): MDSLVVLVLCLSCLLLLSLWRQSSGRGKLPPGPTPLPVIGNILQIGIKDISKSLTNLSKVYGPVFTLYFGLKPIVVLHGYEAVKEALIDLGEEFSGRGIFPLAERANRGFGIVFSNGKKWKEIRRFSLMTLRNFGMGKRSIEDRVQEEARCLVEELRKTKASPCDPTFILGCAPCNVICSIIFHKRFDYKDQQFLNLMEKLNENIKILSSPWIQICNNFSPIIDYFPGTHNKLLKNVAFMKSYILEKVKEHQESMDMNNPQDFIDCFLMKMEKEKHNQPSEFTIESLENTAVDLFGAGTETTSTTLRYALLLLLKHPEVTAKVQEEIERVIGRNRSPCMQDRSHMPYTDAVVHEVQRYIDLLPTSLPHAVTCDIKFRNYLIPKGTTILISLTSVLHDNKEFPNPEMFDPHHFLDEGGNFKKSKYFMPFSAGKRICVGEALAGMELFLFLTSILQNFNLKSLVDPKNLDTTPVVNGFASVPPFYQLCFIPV

[9] = Half life in CD1 mouse at 2 mg/kg, iv administered with 20% encapsine in water by LC/MS analysis; settings: in vivo
[10] = Oral bioavailability in CD1 mouse at 20 mg/kg administered with 1% methylcellulose in water by LC/MS analysis; type: ADME, organism-based; settings: in vivo
[11] = Protein binding in human plasma; type: ADME, cell-free; settings: read-out: PPB
[12] = Protein binding in mouse plasma; type: ADME, cell-free; settings: read-out: PPB (converted)
[13] = Volume of distribution in CD1 mouse at 2 mg/kg, iv and 20 mg/kg, po by LC/MS analysis; settings: in vivo
[14] = Cmax in CD1 mouse at 20 mg/kg, po administered with 1% methylcellulose in water by LC/MS analysis; type: ADME, organism-based; design: dose 20 mg/kg, route oral; settings: in vivo
[15] = Clearance in CD1 mouse at 2 mg/kg, iv and 20 mg/kg, po by LC/MS analysis; settings: in vivo
Cytochrome P450 2C19 = Cytochrome P450 2C19 (Homo sapiens, UniProt P33261); assay: Inhibition of CYP2C19; type: ADME
Sequence of Cytochrome P450 2C19 (P33261 whole entry): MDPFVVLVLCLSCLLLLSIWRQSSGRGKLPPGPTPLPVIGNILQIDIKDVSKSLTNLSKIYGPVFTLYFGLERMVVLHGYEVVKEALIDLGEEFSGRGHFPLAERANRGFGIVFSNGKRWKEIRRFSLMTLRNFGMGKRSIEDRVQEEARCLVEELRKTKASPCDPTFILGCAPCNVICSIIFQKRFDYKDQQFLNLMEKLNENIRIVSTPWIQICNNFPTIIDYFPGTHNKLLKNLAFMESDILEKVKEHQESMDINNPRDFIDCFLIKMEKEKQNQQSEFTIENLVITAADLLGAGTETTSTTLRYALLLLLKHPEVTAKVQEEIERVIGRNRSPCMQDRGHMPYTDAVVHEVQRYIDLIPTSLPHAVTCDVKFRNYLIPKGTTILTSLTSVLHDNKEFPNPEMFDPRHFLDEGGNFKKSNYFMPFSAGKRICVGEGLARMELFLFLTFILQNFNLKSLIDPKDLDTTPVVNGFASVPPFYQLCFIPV

Mus musculus [16] = assay: AUC (0 to t) in CD1 mouse at 20 mg/kg, po administered with 1% methylcellulose in water by LC/MS analysis; type: ADME, organism-based; design: dose 20 mg/kg, route oral; settings: in vivo
Cytochrome P450 2D6 = Cytochrome P450 2D6 (Homo sapiens, UniProt P10635); assay: Inhibition of CYP2D6; type: ADME
Sequence of Cytochrome P450 2D6 (P10635 whole entry): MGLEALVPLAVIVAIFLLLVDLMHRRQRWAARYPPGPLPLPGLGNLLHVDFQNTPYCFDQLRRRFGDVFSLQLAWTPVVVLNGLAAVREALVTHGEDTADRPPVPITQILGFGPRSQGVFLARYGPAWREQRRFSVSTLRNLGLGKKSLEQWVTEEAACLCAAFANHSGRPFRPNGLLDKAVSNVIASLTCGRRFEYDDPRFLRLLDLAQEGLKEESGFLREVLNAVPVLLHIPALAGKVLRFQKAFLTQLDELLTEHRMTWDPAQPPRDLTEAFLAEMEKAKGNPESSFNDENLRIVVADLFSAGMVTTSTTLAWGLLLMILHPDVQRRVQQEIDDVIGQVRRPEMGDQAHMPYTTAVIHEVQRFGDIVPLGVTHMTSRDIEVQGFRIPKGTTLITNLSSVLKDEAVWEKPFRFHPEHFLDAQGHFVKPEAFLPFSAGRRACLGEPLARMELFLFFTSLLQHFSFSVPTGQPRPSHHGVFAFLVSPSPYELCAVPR

Mus musculus [17] = assay: AUC (0 to t) in CD1 mouse at 2 mg/kg, iv administered with 20% encapsine in water by LC/MS analysis; settings: in vivo
[18] = Volume of distribution in CD1 mouse at 2 mg/kg, iv and 20 mg/kg, po by LC/MS analysis; type: ADME, organism-based; settings: in vivo
[19] = target: 3',5'-cyclic-AMP phosphodiesterase 4B (Homo sapiens) (UniProt Q07343); assay: Activity of PDE4B at 0.3 uM
Sequence of 3',5'-cyclic-AMP phosphodiesterase 4B (Homo sapiens) (Q07343 whole entry): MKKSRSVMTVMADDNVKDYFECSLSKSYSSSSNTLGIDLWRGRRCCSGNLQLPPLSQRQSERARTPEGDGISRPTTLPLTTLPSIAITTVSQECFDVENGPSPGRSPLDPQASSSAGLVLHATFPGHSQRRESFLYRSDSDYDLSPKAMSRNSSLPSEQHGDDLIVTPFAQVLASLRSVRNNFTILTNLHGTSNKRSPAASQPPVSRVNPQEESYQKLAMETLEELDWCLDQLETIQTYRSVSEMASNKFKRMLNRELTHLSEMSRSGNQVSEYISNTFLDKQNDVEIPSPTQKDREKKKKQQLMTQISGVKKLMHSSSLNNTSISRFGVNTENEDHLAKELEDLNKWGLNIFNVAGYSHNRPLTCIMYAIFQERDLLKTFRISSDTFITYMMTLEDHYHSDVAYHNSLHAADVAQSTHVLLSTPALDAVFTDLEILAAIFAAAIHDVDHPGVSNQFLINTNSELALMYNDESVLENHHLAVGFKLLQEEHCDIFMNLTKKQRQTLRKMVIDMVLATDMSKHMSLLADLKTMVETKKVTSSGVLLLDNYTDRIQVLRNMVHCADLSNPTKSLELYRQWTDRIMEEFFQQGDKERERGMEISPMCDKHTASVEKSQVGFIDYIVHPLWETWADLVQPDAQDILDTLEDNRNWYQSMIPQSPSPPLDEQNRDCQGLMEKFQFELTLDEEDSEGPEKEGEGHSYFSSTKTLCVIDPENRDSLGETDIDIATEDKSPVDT

[20] = target: T1, Nuclear receptor subfamily 1 group I member 2; assay: Activity at PXR at 1 uM
[21] = Half life in CD1 mouse at 2 mg/kg, iv administered with 3% solutol, 7% PEG in saline by LC/MS analysis; type: ADME, organism-based; design: dose 2 mg/kg, route intravenous; settings: in vivo
Mus musculus [22] = assay: AUC (0 to t) in CD1 mouse at 2 mg/kg, iv administered with 3% solutol, 7% PEG in saline by LC/MS analysis; type: ADME, organism-based, Plasma; design: dose 2 mg/kg, route intravenous; settings: in vivo
[23] = Clearance in CD1 mouse at 2 mg/kg, iv and 20 mg/kg, po by LC/MS analysis; type: ADME, organism-based; settings: in vivo

SMILES: CC(Oc1cccc(C(F)(F)F)c1)C(=O)Nc1cc(C(F)(F)F)ccc1-n1cncn1 (racemic)
IC50 (Plasmodium falciparum [1]): 285 nM

SMILES: CCN(CC)CCCC(C)Nc1ccnc2cc(Cl)ccc12 (configuration not stated) [CHLOROQUINE]
ED50 (Plasmodium falciparum [2]): 2 mg/kg

SMILES: CC(Oc1ccccc1Cl)C(=O)Nc1cc(C(F)(F)F)ccc1-n1cncn1 (racemic)
half-life at 100 µM [3]: 11.7 min
CLint (Liver microsomes): 1.6 mL/min/g
half-life at 100 µM [4]: > 30 min
CLint (Liver): 5.6 mL/min/g
IC50 (Plasmodium falciparum [1]): 190 nM

SMILES: O=C(Nc1cc(C(F)(F)F)ccc1-n1cncn1)C1(c2cccc(C(F)(F)F)c2)CC1
solubility [7]: 9 µM (≈ 3.96 µg/mL)
Activity [8]: Active
INH (Cytochrome P450 3A4): > 10 µM
INH (Cytochrome P450 2C9): 6.3 µM
bioavailability [10]: 55%
Vd [18]: 11.9 L/kg
fraction unbound [12]: 0.006
Cmax [14]: 1090 ng/mL
INH (Cytochrome P450 2C19): > 10 µM
Activity [19]: Active
ED50 (Plasmodium falciparum [2]): 12 mg/kg
ED90 (Plasmodium falciparum [2]): 20 mg/kg
Activity [20]: Active
half-life [21]: 612 min
AUCt (Mus musculus [16]): 13.6 µg/h/mL
INH (Cytochrome P450 2D6): > 10 µM
AUCt (Mus musculus [22]): 2.23 µg/h/mL
clearance [23]: 14.3 mL/min/kg

SMILES: CC(Oc1ccccc1)C(=O)Nc1cc(C(F)(F)F)ccc1-n1cncn1 (racemic)
half-life at 100 µM [3]: 12 min
CLint (Liver microsomes): 2.9 mL/min/g
half-life at 100 µM [4]: 24.7 min
CLint (Liver): 5.3 mL/min/g
IC50 (Plasmodium falciparum [1]): 897 nM

SMILES: CC(Oc1ccc(Cl)cc1)C(=O)Nc1cc(C(F)(F)F)ccc1-n1cncn1 (racemic)
half-life at 100 µM [3]: 13.6 min
CLint (Liver microsomes): 3.3 mL/min/g
half-life at 100 µM [4]: 21.8 min
CLint (Liver): 4.1 mL/min/g
chromatographic logD [5]: 3.84
IC50 (Plasmodium falciparum [1]): 394 nM

SMILES: O=C(Nc1cc(Cl)ccc1-n1cncn1)C1(c2ccccc2)CC1
IC50 (Plasmodium falciparum [1]): 1700 nM

Now from value to compound, other results behind:

half-life at 100 µM [3]: 6.2 min
CLint (Liver microsomes): 1.2 mL/min/g
half-life at 100 µM [4]: > 30 min
CLint (Liver): 7.9 mL/min/g
SMILES: CC(Oc1cccc(Cl)c1)C(=O)Nc1cc(C(F)(F)F)ccc1-n1cncn1 (racemic)
IC50 (Plasmodium falciparum [1]): 327 nM

chromatographic logD [5]: 4.56
SMILES: CC(Oc1ccc(Cl)cc1)C(=O)Nc1cc(C(F)(F)F)ccc1N1CCOCC1 (racemic)
IC50 (Plasmodium falciparum [1]): 439 nM

IC50 (Plasmodium falciparum [6]): 11 nM
SMILES: Cc1cc(C)n2nc(C(=O)Nc3cc(C(F)(F)F)ccc3N3CCOCC3)nc2n1
IC50 (Plasmodium falciparum [1]): > 5000 nM

solubility [7]: 100 µM (≈ 37.2 µg/mL)
Activity [8]: Active
INH (Cytochrome P450 3A4): > 10 µM
INH (Cytochrome P450 2C9): 7.9 µM
half-life [9]: 166 min
bioavailability [10]: 81%
fraction unbound [11]: 0.01
fraction unbound [12]: 0.01
Vd [13]: 6.47 L/kg
Cmax [14]: 2340 ng/mL
clearance [15]: 29.7 mL/min/kg
INH (Cytochrome P450 2C19): > 10 µM
chromatographic logD [5]: 3.83
AUCt (Mus musculus [16]): 9.71 µg/h/mL
INH (Cytochrome P450 2D6): > 10 µM
AUCt (Mus musculus [17]): 0.596 µg/h/mL
SMILES: O=C(Nc1cc(C(F)(F)F)ccc1-n1cncn1)C1(c2ccccc2)CC1
ED50 (Plasmodium falciparum [2]): > 50 mg/kg
ED90 (Plasmodium falciparum [2]): > 50 mg/kg
IC50 (Plasmodium falciparum [1]): 66 nM

IC50 (Plasmodium falciparum [6]): 73 nM
SMILES: Cc1ccnc2nc(C(=O)Nc3cc(C(F)(F)F)ccc3N3CCCCC3)nn12
IC50 (Plasmodium falciparum [1]): 3970 nM
